The experiment deals with Sodium channel protein type 5 subunit alpha (Homo sapiens, UniProt Q14524). Description: Inhibition of human NaV1.5 at -140 mV holding potential by whole-cell patch clamp assay. A general note: The patch-clamp technique gives a direct electrical read-out from membranes.

The record followed here is ChEMBL document CHEMBL3414527, “Engineering potent and selective analogues of GpTx-1, a tarantula venom peptide antagonist of the Na(V)1.7 sodium channel” (J Med Chem, 2015).

Usually IC50 stands for the concentration needed to halve the response being measured. A high value points to weaker potency in that assay.

Bridge positions count the residues as written; N and C are the ends. Peptide text beside a SMILES is read from it.

Chain of Sodium channel protein type 5 subunit alpha (Q14524 whole entry): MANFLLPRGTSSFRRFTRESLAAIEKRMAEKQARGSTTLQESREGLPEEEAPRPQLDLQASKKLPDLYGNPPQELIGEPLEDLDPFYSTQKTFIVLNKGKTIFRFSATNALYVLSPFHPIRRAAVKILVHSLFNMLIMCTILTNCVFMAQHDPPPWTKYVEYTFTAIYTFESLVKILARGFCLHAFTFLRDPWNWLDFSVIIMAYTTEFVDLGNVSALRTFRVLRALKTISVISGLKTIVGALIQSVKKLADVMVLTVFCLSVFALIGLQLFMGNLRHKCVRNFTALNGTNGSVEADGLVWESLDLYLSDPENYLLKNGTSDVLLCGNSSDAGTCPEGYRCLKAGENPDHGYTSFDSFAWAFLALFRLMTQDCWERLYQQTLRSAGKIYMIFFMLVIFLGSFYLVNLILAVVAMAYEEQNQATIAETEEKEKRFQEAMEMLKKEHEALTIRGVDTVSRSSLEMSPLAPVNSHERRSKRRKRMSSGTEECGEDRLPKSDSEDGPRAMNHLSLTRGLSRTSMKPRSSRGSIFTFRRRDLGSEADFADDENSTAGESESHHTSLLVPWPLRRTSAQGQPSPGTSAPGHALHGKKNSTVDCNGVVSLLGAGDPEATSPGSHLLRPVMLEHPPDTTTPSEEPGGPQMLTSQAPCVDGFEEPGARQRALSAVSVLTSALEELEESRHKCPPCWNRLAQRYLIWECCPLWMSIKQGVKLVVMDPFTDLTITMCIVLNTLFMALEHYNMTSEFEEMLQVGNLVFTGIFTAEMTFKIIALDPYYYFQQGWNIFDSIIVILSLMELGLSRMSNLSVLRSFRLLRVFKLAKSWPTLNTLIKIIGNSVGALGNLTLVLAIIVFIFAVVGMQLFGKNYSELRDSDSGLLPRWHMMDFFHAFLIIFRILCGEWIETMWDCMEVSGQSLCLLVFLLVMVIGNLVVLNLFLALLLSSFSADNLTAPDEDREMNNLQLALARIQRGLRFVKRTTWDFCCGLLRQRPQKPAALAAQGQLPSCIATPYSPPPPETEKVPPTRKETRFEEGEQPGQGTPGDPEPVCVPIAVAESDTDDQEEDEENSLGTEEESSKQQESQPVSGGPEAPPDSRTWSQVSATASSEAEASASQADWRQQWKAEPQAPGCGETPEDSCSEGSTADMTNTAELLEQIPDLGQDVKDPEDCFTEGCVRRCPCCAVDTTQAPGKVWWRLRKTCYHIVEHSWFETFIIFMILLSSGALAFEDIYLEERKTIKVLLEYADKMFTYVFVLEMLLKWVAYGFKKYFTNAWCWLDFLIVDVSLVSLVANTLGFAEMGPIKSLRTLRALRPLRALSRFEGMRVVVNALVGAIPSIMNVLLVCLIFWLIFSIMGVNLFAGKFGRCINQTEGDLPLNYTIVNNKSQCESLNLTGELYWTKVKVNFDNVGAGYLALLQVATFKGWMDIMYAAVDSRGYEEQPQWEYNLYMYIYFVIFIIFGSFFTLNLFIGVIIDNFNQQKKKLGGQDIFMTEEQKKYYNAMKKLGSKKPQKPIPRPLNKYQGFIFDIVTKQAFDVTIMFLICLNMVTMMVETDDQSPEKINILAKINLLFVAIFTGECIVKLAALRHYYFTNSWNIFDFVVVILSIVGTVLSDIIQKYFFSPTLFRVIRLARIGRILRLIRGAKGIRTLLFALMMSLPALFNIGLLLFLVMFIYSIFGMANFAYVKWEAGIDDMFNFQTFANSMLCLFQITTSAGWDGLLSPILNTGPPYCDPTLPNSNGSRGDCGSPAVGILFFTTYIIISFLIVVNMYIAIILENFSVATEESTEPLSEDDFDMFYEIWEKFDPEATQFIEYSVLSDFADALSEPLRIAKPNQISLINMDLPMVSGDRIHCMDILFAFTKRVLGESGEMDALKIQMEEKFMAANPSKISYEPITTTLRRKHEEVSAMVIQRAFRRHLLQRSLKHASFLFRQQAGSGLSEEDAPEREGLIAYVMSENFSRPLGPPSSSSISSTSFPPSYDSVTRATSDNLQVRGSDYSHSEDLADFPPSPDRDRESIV

Turning to `CSCC[C@@H]1NC(=O)[C@H](Cc2ccccc2)NC(=O)CNC(=O)[C@H](CC(C)C)NC(=O)[C@@H](NC(=O)[C@@H](N)CC(=O)O)CSSC[C@@H]2NC(=O)[C@@H]3CSSC[C@@H](C(=O)N[C@@H](CCCCN)C(=O)N[C@@H](Cc4ccc(O)cc4)C(=O)N[C@H](C(=O)N[C@@H](Cc4ccccc4)C(N)=O)C(C)C)NC(=O)[C@H](Cc4c[nH]c5ccccc45)NC(=O)[C@H](CCCCN)NC(=O)[C@H](Cc4cnc[nH]4)NC(=O)[C@H]([C@@H](C)O)NC(=O)[C@H](CCCNC(=N)N)NC(=O)[C@H](CO)NC(=O)[C@H](CSSC[C@H](NC(=O)[C@H](CCCCN)NC(=O)[C@H](CCCNC(=N)N)NC1=O)C(=O)N[C@@H](C)C(=O)N1CCC[C@H]1C(=O)N[C@@H](CC(=O)O)C(=O)N[C@@H](CC(N)=O)C(=O)N[C@@H](CC(=O)O)C(=O)N[C@@H](CCCCN)C(=O)N3)NC(=O)[C@H](C(C)C)NC(=O)[C@H](CC(C)C)NC(=O)[C@H](CC(N)=O)NC(=O)[C@@H]1CCCN1C(=O)[C@H](CCCNC(=N)N)NC2=O` (H-DCLGFMRKCAPDNDKCCRPNLVCSRTHKWCKYVF-NH2; disulfide 2-17, 9-23, 16-30), the IC50 is more than 5 µM. `CC[C@H](C)[C@@H]1NC(=O)[C@@H]2CSSC[C@@H]3NC(=O)[C@H](C(C)C)NC(=O)[C@H](CC(C)C)NC(=O)[C@H](CC(N)=O)NC(=O)[C@@H]4CCCN4C(=O)[C@H](CCCNC(=N)N)NC(=O)[C@H](CSSC[C@H](NC(=O)[C@@H](N)CC(=O)O)C(=O)N[C@@H](CC(C)C)C(=O)NCC(=O)N[C@@H](Cc4ccccc4)C(=O)N[C@@H](CCSC)C(=O)N[C@@H](CCCNC(=N)N)C(=O)N[C@@H](CCCCN)C(=O)N2)NC(=O)[C@H](CSSC[C@@H](C(=O)N[C@@H](CCCCN)C(=O)N[C@@H](Cc2ccc(O)cc2)C(=O)N[C@H](C(=O)N[C@@H](Cc2ccccc2)C(N)=O)C(C)C)NC(=O)[C@H](Cc2c[nH]c4ccccc24)NC(=O)[C@H](CCCCN)NC(=O)[C@H](Cc2cnc[nH]2)NC(=O)[C@H]([C@@H](C)O)NC(=O)[C@H](CCCNC(=N)N)NC(=O)[C@H](CO)NC3=O)NC(=O)[C@H](CCCCN)NC(=O)[C@H](CC(=O)O)NC(=O)[C@H](CC(N)=O)NC(=O)[C@H](C)NC(=O)[C@@H]2CCCN2C1=O` (H-DCLGFMRKCIPANDKCCRPNLVCSRTHKWCKYVF-NH2; disulfide 2-17, 9-23, 16-30): the 50% inhibitory concentration (IC50) was more than 5 µM. The compound `CC[C@H](C)[C@@H]1NC(=O)[C@@H]2CSSC[C@@H]3NC(=O)[C@H](C(C)C)NC(=O)[C@H](CC(C)C)NC(=O)[C@H](C)NC(=O)[C@@H]4CCCN4C(=O)[C@H](CCCNC(=N)N)NC(=O)[C@H](CSSC[C@H](NC(=O)[C@@H](N)CC(=O)O)C(=O)N[C@@H](CC(C)C)C(=O)NCC(=O)N[C@@H](Cc4ccccc4)C(=O)N[C@@H](CCSC)C(=O)N[C@@H](CCCNC(=N)N)C(=O)N[C@@H](CCCCN)C(=O)N2)NC(=O)[C@H](CSSC[C@@H](C(=O)N[C@@H](CCCCN)C(=O)N[C@@H](Cc2ccc(O)cc2)C(=O)N[C@H](C(=O)N[C@@H](Cc2ccccc2)C(N)=O)C(C)C)NC(=O)[C@H](Cc2c[nH]c4ccccc24)NC(=O)[C@H](CCCCN)NC(=O)[C@H](Cc2cnc[nH]2)NC(=O)[C@H]([C@@H](C)O)NC(=O)[C@H](CCCNC(=N)N)NC(=O)[C@H](CO)NC3=O)NC(=O)[C@H](CCCCN)NC(=O)[C@H](CC(=O)O)NC(=O)[C@H](CC(N)=O)NC(=O)[C@H](CC(=O)O)NC(=O)[C@@H]2CCCN2C1=O` (H-DCLGFMRKCIPDNDKCCRPALVCSRTHKWCKYVF-NH2; disulfide 2-17, 9-23, 16-30) gave an IC50 of more than 5 µM. For the compound `CC[C@H](C)[C@@H]1NC(=O)[C@@H]2CSSC[C@@H]3NC(=O)[C@H](C)NC(=O)[C@H](CC(C)C)NC(=O)[C@H](CC(N)=O)NC(=O)[C@@H]4CCCN4C(=O)[C@H](CCCNC(=N)N)NC(=O)[C@H](CSSC[C@H](NC(=O)[C@@H](N)CC(=O)O)C(=O)N[C@@H](CC(C)C)C(=O)NCC(=O)N[C@@H](Cc4ccccc4)C(=O)N[C@@H](CCSC)C(=O)N[C@@H](CCCNC(=N)N)C(=O)N[C@@H](CCCCN)C(=O)N2)NC(=O)[C@H](CSSC[C@@H](C(=O)N[C@@H](CCCCN)C(=O)N[C@@H](Cc2ccc(O)cc2)C(=O)N[C@H](C(=O)N[C@@H](Cc2ccccc2)C(N)=O)C(C)C)NC(=O)[C@H](Cc2c[nH]c4ccccc24)NC(=O)[C@H](CCCCN)NC(=O)[C@H](Cc2cnc[nH]2)NC(=O)[C@H]([C@@H](C)O)NC(=O)[C@H](CCCNC(=N)N)NC(=O)[C@H](CO)NC3=O)NC(=O)[C@H](CCCCN)NC(=O)[C@H](CC(=O)O)NC(=O)[C@H](CC(N)=O)NC(=O)[C@H](CC(=O)O)NC(=O)[C@@H]2CCCN2C1=O` (H-DCLGFMRKCIPDNDKCCRPNLACSRTHKWCKYVF-NH2; disulfide 2-17, 9-23, 16-30), the IC50 is more than 5 µM. `CC[C@H](C)[C@@H]1NC(=O)[C@@H]2CSSC[C@@H]3NC(=O)[C@H](C(C)C)NC(=O)[C@H](CC(C)C)NC(=O)[C@H](CC(N)=O)NC(=O)[C@@H]4CCCN4C(=O)[C@H](CCCNC(=N)N)NC(=O)[C@H](CSSC[C@H](NC(=O)[C@@H](N)CC(=O)O)C(=O)N[C@@H](CC(C)C)C(=O)NCC(=O)N[C@@H](Cc4ccccc4)C(=O)N[C@@H](CCSC)C(=O)N[C@@H](CCCNC(=N)N)C(=O)N[C@@H](CCCCN)C(=O)N2)NC(=O)[C@H](CSSC[C@@H](C(=O)N[C@@H](CCCCN)C(=O)N[C@@H](Cc2ccc(O)cc2)C(=O)N[C@H](C(=O)N[C@@H](Cc2ccccc2)C(N)=O)C(C)C)NC(=O)[C@H](Cc2c[nH]c4ccccc24)NC(=O)[C@H](CCCCN)NC(=O)[C@H](Cc2cnc[nH]2)NC(=O)[C@H]([C@@H](C)O)NC(=O)[C@H](CCCNC(=N)N)NC(=O)[C@H](C)NC3=O)NC(=O)[C@H](CCCCN)NC(=O)[C@H](CC(=O)O)NC(=O)[C@H](CC(N)=O)NC(=O)[C@H](CC(=O)O)NC(=O)[C@@H]2CCCN2C1=O` (H-DCLGFMRKCIPDNDKCCRPNLVCARTHKWCKYVF-NH2; disulfide 2-17, 9-23, 16-30): the IC50 was more than 4.7 µM. The result for `CC[C@H](C)[C@@H]1NC(=O)[C@@H]2CSSC[C@@H]3NC(=O)[C@H](C(C)C)NC(=O)[C@H](CC(C)C)NC(=O)[C@H](CC(N)=O)NC(=O)[C@@H]4CCCN4C(=O)[C@H](CCCNC(=N)N)NC(=O)[C@H](CSSC[C@H](NC(=O)[C@@H](N)CC(=O)O)C(=O)N[C@@H](CC(C)C)C(=O)NCC(=O)N[C@@H](Cc4ccccc4)C(=O)N[C@@H](CCSC)C(=O)N[C@@H](CCCNC(=N)N)C(=O)N[C@@H](CCCCN)C(=O)N2)NC(=O)[C@H](CSSC[C@@H](C(=O)N[C@@H](CCCCN)C(=O)N[C@@H](Cc2ccc(O)cc2)C(=O)N[C@H](C(=O)N[C@@H](Cc2ccccc2)C(N)=O)C(C)C)NC(=O)[C@H](Cc2c[nH]c4ccccc24)NC(=O)[C@H](CCCCN)NC(=O)[C@H](Cc2cnc[nH]2)NC(=O)[C@H](CCCNC(=N)N)NC(=O)[C@H](CCCNC(=N)N)NC(=O)[C@H](CO)NC3=O)NC(=O)[C@H](CCCCN)NC(=O)[C@H](CC(=O)O)NC(=O)[C@H](CC(N)=O)NC(=O)[C@H](CC(=O)O)NC(=O)[C@@H]2CCCN2C1=O` (H-DCLGFMRKCIPDNDKCCRPNLVCSRRHKWCKYVF-NH2; disulfide 2-17, 9-23, 16-30) reads 0.5 µM.

Regarding `CC[C@H](C)[C@@H]1NC(=O)[C@@H]2CSSC[C@@H]3NC(=O)[C@H](C(C)C)NC(=O)[C@H](CC(C)C)NC(=O)[C@H](CC(N)=O)NC(=O)[C@@H]4CCCN4C(=O)[C@H](CCCNC(=N)N)NC(=O)[C@H](CSSC[C@H](NC(=O)[C@@H](N)CC(=O)O)C(=O)N[C@@H](CC(C)C)C(=O)NCC(=O)N[C@@H](Cc4ccccc4)C(=O)N[C@@H](CCSC)C(=O)N[C@@H](CCCNC(=N)N)C(=O)N[C@@H](CCCCN)C(=O)N2)NC(=O)[C@H](CSSC[C@@H](C(=O)N[C@@H](CCCCN)C(=O)N[C@@H](C)C(=O)N[C@H](C(=O)N[C@@H](Cc2ccccc2)C(N)=O)C(C)C)NC(=O)[C@H](Cc2c[nH]c4ccccc24)NC(=O)[C@H](CCCCN)NC(=O)[C@H](Cc2cnc[nH]2)NC(=O)[C@H]([C@@H](C)O)NC(=O)[C@H](CCCNC(=N)N)NC(=O)[C@H](CO)NC3=O)NC(=O)[C@H](CCCCN)NC(=O)[C@H](CC(=O)O)NC(=O)[C@H](CC(N)=O)NC(=O)[C@H](CC(=O)O)NC(=O)[C@@H]2CCCN2C1=O` (H-DCLGFMRKCIPDNDKCCRPNLVCSRTHKWCKAVF-NH2; disulfide 2-17, 9-23, 16-30), the concentration for half-maximal inhibition (IC50) was more than 5 µM. Take `CC[C@H](C)[C@@H]1NC(=O)[C@@H]2CSSC[C@@H]3NC(=O)[C@H](C(C)C)NC(=O)[C@H](CC(C)C)NC(=O)[C@H](CC(N)=O)NC(=O)[C@@H]4CCCN4C(=O)[C@H](CCCNC(=N)N)NC(=O)[C@H](CSSC[C@H](NC(=O)[C@@H](N)CC(=O)O)C(=O)N[C@@H](CC(C)C)C(=O)NCC(=O)NCC(=O)N[C@@H](CCSC)C(=O)N[C@@H](CCCNC(=N)N)C(=O)N[C@@H](CCCCN)C(=O)N2)NC(=O)[C@H](CSSC[C@@H](C(=O)N[C@@H](CCCCN)C(=O)N[C@@H](Cc2ccc(O)cc2)C(=O)N[C@H](C(=O)N[C@@H](Cc2ccccc2)C(N)=O)C(C)C)NC(=O)[C@H](Cc2c[nH]c4ccccc24)NC(=O)[C@H](CCCCN)NC(=O)[C@H](Cc2cnc[nH]2)NC(=O)[C@H]([C@@H](C)O)NC(=O)[C@H](CCCNC(=N)N)NC(=O)[C@H](CO)NC3=O)NC(=O)[C@H](CCCCN)NC(=O)[C@H](CC(=O)O)NC(=O)[C@H](CC(N)=O)NC(=O)[C@H](CC(=O)O)NC(=O)[C@@H]2CCCN2C1=O` (H-DCLGGMRKCIPDNDKCCRPNLVCSRTHKWCKYVF-NH2; disulfide 2-17, 9-23, 16-30): the concentration for half-maximal inhibition (IC50) was more than 10 µM.
